Assay [1] deals with T1, NAD-dependent protein deacylase sirtuin-5, mitochondrial (Homo sapiens, UniProt Q9NXA8). The experiment in a line: blockers of sirtuin-5 peptide desuccinylation – biochemical, fluorescence imaging, cherry-pick, set 6, dose response (AID 720597).
The nature of assay [2]: Trypanosoma cruzi growth suppression in host cells – NIH3T3 host cells, beta-gal luminescence, confirmation (AID 2044).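 Also: intracellular parasites grown in NIH/3T3 mouse fibroblasts as host cells; luminescent beta-galactosidase reporter signal from transgenic T. cruzi replicating inside host cells; inhibitors lower the luminescence signal.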 The format is functional, cell-based.
In assay [3] the target is T2, Calpain-2 catalytic subunit (Sus scrofa, UniProt P43367).
T2 sequence (P43367 whole entry): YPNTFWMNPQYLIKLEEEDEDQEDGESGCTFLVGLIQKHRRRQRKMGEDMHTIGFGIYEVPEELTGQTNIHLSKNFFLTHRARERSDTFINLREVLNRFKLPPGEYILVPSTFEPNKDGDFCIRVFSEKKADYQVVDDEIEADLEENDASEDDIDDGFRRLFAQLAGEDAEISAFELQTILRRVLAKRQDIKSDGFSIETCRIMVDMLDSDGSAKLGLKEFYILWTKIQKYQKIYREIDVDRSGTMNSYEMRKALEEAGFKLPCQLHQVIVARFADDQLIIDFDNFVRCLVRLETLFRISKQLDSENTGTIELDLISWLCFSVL
The experiment in a line: m-calpain protease blockers, concentration series – biochemical, fluorogenic peptide substrate, dose response (AID 1420). The format is functional.

A short description of assay [4]: NIH3T3 cell viability loss – ATP luminescence, mouse fibroblasts, counter-screen, dose response (AID 2010).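 Also: cells exposed to compound for about 90 hours before reading.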 The format is functional, cell-based.
Assay [5] addresses ATP-dependent translocase ABCB1 (Homo sapiens, UniProt P08183). As to the kind of experiment: inhibition of P-gp mediated JC-1 efflux – Jurkat-DNR cells, flow cytometry, dose response (AID 1689). The format is functional. For orientation: In flow cytometry, cells or beads pass a laser one at a time.
Assay [6] concerns the target Broad substrate specificity ATP-binding cassette transporter ABCG2 (Homo sapiens, UniProt Q9UNQ0). As to the kind of experiment: blockers of JC-1 export by ABCG2 – Ig-MXP3 cells, flow cytometry, dose response (AID 1690). The format is functional.
Assay [7] can be described thus: viability loss in HepG2 liver cells – cell-based, ATP luminescence, cherry-pick, set 6, cytotoxicity control, dose response (AID 1053125). The format is functional.
The nature of assay [8]: cells.
Assay [9] is described as follows: cells. The settings on record: HEK293.
Assay [10] deals with T3, Fibrinogen beta chain (Homo sapiens, UniProt P02675). As to the kind of experiment: Fluorescence polarization-based biochemical high throughput dose response assay to identify inhibitors that disrupt the binding of a cyclic peptide (Tn6) to the fibrin proteolytic product D-Dimer and fragment E complex [DD(E )]. For orientation: In fluorescence polarisation assays a small probe gives low polarisation when free and higher when bound to something large.
T3 sequence (P02675 whole entry, the tested form may be a part): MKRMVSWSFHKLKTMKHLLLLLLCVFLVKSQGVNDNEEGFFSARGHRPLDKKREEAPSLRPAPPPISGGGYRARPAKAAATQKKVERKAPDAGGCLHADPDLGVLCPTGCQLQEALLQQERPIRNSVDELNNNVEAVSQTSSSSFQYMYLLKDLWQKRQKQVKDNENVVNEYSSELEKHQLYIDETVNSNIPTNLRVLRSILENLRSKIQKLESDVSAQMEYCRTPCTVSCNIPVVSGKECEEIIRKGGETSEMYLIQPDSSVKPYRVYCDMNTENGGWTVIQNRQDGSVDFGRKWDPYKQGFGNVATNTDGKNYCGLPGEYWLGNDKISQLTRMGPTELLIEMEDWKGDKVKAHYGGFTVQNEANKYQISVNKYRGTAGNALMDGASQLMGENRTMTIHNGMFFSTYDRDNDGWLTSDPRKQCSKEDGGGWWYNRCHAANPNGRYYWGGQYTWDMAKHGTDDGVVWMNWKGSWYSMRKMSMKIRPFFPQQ

Assay [11] deals with T3, Fibrinogen beta chain. As to the kind of experiment: Fluorescence polarization-based biochemical high throughput dose response assay to identify inhibitors that disrupt the binding of a cyclic peptide (Tn7) to the fibrin proteolytic product D-Dimer and fragment E complex [DD(E )].
The target in assay [12] is RNA-editing ligase 1, mitochondrial (Trypanosoma brucei brucei, UniProt P86926). The experiment in a line: inhibition of trypanosome RNA editing ligase – biochemical, fluorescence, Trypanosoma brucei, dose response (AID 1117295). The format is functional.
Sequence of RNA-editing ligase 1, mitochondrial (P86926 whole entry): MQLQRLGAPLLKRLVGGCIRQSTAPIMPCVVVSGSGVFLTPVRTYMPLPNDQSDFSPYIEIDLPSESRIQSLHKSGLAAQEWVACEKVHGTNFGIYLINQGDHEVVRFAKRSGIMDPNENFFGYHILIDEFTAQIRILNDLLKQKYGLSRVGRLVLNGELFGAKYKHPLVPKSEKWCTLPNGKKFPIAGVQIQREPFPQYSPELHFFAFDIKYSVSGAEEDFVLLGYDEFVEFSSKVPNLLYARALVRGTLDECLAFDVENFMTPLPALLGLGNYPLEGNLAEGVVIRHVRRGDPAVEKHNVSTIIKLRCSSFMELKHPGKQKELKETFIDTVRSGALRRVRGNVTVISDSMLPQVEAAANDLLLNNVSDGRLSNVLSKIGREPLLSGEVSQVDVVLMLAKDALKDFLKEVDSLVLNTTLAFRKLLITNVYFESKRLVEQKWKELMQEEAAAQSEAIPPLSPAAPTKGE
Assay [13] has as its system Vero. The experiment in a line: cells. The format is functional, cell-based. To be noted: Chlorocebus sabaeus.
The subject of assay [14] is Vero. As to the kind of experiment: cells. The format is functional. To be noted: Chlorocebus sabaeus.
Another assay concerns the target Paired box protein Pax-8 (Homo sapiens, UniProt Q06710). The experiment in a line: PAX8 transcriptional activity inhibition in RMG-I – RMG-I cells, luciferase, cherry-pick, dose response (AID 687027).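 Also: luciferase reporter driven by Pax8 target thyroperoxidase promoter measured by SteadyGlo luminescence.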 The format is functional, cell-based.
A short description of assay [15]: inhibitors acting on PAX2 in cells – cell-based, plate reader, dry powder samples, selectivity assay for PAX8 inhibitor project, dose response (AID 743048).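 Also: HEK293 cells carrying a WT1 promoter luciferase reporter driven by expressed Pax2; potency is for inhibition of Pax2 driven reporter signal.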 The format is functional.
A short description of assay [16]: PAX5 cellular inhibition readout – cell-based, plate reader, dry powder samples, selectivity assay for PAX8 inhibitor project, dose response (AID 743047).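 Also: HEK293 cells carrying a Pax5 driven CD19 promoter luciferase reporter; potency of inhibitors that lower reporter luminescence.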 The format is functional.
Assay [17] in a line: PAX8-dependent cell viability loss – plate reader, dry powder, dose response (AID 743049). The format is functional, cell-based.
In assay [18] the target is T1, NAD-dependent protein deacylase sirtuin-5, mitochondrial. As to the kind of experiment: sirtuin-5 deacylation blockers, concentration series – biochemical, fluorescence imaging, cherry-pick, set 5, dose response (AID 720591).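 Also: desuccinylation of succinyl peptide AMC substrate read as fluorescence after trypsin release; potency of inhibitors that lower fluorescence and may act on trypsin instead.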
In another assay the test system is HEK293. As to the kind of experiment: viability loss in HEK293T cells – cell-based, ATP luminescence, cherry-pick samples, cytotoxicity control, dose response (AID 687005).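 Also: cells exposed to compound for 48 hours.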 To be noted: Homo sapiens. The format is functional.
The nature of assay [19]: HEK293 Cytotoxicity Assay Measured in Cell-Based System Using Plate Reader - 7071-01_Inhibitor_Dose_CherryPick_Activity_Set2. The format is functional.
Assay [20] in a line: rise of 2N DNA cells, HeLa – IC50, dose response (AID 1117349). The format is functional, cell-based.
A short description of assay [21]: IC50 of insulin release inhibition, rat insulinoma INS-1E line, 5 mM glucose, cell-based (AID 1117331). The format is functional.
A short description of assay [22]: cells. The format is functional, cell-based. The settings on record: INS-1E.
Assay [23] in a line: rise of 4N DNA cells, HeLa – IC50, dose response (AID 1117351). The format is functional, cell-based.

Structures are written as SMILES. Where a name gives a salt, the structure may show the parent alone. The source made the active and inactive calls.

T1 sequence (Q9NXA8 whole entry): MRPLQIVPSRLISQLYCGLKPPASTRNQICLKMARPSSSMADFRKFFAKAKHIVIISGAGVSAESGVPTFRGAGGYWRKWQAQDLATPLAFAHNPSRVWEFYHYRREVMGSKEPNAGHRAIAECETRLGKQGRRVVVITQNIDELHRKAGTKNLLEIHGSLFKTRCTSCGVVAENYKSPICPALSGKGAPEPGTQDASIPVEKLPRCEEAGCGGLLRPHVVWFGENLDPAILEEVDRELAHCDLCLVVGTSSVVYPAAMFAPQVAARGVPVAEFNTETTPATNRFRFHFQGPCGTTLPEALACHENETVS
Sequence of ATP-dependent translocase ABCB1 (P08183 whole entry): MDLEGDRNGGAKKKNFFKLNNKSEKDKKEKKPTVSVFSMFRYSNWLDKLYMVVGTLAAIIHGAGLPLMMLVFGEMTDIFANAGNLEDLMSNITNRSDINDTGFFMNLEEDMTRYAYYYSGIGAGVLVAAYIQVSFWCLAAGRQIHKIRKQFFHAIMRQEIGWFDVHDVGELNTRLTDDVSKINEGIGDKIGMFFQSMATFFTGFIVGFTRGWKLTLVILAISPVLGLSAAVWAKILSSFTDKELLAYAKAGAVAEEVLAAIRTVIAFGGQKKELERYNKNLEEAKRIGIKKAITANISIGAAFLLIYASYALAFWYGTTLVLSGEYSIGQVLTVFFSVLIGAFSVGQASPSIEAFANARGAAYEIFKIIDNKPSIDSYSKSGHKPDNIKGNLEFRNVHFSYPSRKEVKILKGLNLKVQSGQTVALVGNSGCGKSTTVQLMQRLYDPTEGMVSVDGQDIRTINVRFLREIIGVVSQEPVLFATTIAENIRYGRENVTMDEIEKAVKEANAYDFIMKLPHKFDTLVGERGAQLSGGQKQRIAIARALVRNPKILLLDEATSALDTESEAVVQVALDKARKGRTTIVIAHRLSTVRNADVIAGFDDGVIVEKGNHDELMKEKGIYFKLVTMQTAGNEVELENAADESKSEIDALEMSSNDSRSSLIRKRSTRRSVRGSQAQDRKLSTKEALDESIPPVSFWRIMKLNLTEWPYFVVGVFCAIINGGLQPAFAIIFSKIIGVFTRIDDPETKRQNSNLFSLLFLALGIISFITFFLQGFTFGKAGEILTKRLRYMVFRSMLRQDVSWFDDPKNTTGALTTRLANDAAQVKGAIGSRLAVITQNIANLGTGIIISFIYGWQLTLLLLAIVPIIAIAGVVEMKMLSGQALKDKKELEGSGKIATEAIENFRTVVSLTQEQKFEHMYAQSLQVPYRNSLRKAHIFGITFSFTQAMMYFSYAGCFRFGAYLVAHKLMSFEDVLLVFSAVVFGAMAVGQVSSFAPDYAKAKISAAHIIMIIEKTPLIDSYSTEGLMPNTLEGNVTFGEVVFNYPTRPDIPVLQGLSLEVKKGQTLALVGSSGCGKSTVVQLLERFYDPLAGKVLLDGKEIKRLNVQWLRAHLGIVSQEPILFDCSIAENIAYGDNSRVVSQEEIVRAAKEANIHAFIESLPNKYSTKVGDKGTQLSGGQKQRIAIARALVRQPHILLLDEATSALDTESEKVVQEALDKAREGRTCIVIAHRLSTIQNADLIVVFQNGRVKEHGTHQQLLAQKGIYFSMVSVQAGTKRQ
Sequence of Paired box protein Pax-8 (Q06710 whole entry): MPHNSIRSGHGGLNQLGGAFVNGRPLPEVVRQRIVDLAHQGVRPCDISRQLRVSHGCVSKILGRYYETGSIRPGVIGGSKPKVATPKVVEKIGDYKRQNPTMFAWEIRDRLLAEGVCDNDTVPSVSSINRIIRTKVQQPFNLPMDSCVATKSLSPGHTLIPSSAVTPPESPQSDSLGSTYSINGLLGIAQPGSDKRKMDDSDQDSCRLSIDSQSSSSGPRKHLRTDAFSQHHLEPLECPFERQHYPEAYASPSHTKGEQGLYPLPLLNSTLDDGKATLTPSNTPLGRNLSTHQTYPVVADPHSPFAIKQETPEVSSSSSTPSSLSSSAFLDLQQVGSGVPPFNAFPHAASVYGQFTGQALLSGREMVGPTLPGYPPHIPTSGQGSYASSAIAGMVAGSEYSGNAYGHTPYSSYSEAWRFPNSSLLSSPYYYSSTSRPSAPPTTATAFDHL
Sequence of Broad substrate specificity ATP-binding cassette transporter ABCG2 (Q9UNQ0 whole entry): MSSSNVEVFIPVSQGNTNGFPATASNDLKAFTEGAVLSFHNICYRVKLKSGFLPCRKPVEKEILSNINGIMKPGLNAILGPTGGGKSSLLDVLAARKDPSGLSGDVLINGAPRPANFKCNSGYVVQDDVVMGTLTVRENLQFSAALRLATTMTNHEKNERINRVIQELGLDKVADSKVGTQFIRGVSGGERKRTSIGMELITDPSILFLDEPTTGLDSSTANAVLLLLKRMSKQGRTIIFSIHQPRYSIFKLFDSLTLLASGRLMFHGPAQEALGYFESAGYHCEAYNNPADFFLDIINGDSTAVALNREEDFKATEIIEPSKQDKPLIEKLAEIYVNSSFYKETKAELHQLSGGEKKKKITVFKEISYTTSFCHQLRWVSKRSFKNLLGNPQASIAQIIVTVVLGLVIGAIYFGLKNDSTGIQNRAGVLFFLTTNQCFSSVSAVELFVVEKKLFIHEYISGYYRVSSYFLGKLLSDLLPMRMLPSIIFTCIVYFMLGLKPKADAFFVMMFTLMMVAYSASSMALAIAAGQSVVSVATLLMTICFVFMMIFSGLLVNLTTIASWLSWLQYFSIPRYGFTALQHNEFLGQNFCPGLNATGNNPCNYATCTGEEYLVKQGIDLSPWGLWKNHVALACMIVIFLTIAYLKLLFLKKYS

What is called AC50 is the concentration at which the activity in the assay is half-maximal. As to `COc1ccc(S(=O)(=O)Nc2ccc3c(c2)C(=O)N([C@@H](C)CO)C[C@@H](C)[C@H](CN(C)S(=O)(=O)c2ccccc2)OCCCC[C@H](C)O3)cc1`, the AC50 in [1] was > 30 µM (inactive).

For orientation: EC50 means the midpoint of the concentration-response curve. As usually defined, the IC50 is the concentration that gives 50% inhibition. Turning to `CCOC(=O)c1c(NC(=O)CSc2ncccn2)sc2c1CCN(Cc1ccccc1)C2`, the EC50 in assay [2] was 3.07 µM (active); in assay [4], > 60 µM (not active); in assay [5] it was 9.93 µM (active); in assay [6] it was 1.88 µM (active). Besides, in assay [3], the IC50 is on record as 5.71 µM (not active). Besides, the AC50 was > 52 µM (inactive) in assay [7], > 70 µM (inactive) in “cells [8]” and > 52 µM (inactive) in the assay “cells [9]”.

As to `CCOC(=O)C1=Nc2cccc3c(O)ccc1c23`, the results for the IC50 at Fibrinogen beta chain [10] and at Fibrinogen beta chain [11] were 22.3 µM (inactive) and > 9.25 µM (active), respectively.

On to `COC(=O)C1=C(C)N(Cc2ccccc2C(F)(F)F)C(NCc2ccc(OC)cc2)=NC1c1ccc(Cl)cc1` (stereo not given), for which the IC50 in assay [12] was > 96.6 µM (inactive).

As usually defined, the CC50 is the concentration at which the toxic effect on the cells reaches its halfway point. With `O=C1/C(=C/c2ccccc2)SC(=S)N1CC(=O)N1CCCCC1c1cccnc1` (stereo not given), the IC50 with Vero [13] is > 25 µM (active). Besides, in the assay on Vero [14], the CC50 is 14.6 µM (active). Also, the AC50 at Paired box protein Pax-8 is 4.37 µM (active); in [15], 70.7 µM (active); in assay [16], 61.9 µM (active); in [17] it was 42.1 µM (active).

Turning to `CCN1CCN(C(=O)c2ccc(C(F)(F)F)cc2)CC1`, the AC50 in assay [18] was > 30 µM (inactive).

Take `O=C(Nc1ccccc1)N1CCCCN2[C@H](C1)[C@H](c1ccc(C#CC3CC3)cc1)[C@@H]2CO`: the AC50 (in the assay on HEK293; in [19]) was 40.1 µM (active) each time.

Regarding `CCN(CCCCOC(=O)c1ccc(OC)c(OC)c1)C(C)Cc1ccc(OC)cc1` (stereo not given) [MEBEVERINE HYDROCHLORIDE], the IC50 was > 10 µM (inactive) in assay [20], 1.95 µM (active) in [21], > 33.3 µM (inactive) in the assay “cells [22]” and > 10 µM (inactive) in assay [23].

Values taken from ChEMBL document CHEMBL1201862, “PubChem BioAssay data set” (2004).
